Experimental data taken from publication PMC12030627, “Radioiodinated Bicyclic RGD Peptide Derivatives for Enhanced Tumor Accumulation” (Pharmaceuticals, 2025).
Like-named read-outs stand apart in the source and are kept apart here. Starred links: 1 amine or outer side, 2 acyl side, 3 side chain; linkers in the order of their positions; H or OH if unused. Positions of bridges follow the written chain, without caps; N, C: chain ends. Non-standard residues stand in square brackets, D forms with d. Residues, ends and D or L forms follow the SMILES beside them. *: point of attachment. Butanoyl(4-(4-I-phenyl)) = O=C(CCCc1ccc(I)cc1)*; TBMB = c1c(C[*:1])cc(C[*:3])cc1C[*:2]; Benzoyl(3-I) = O=C(c1cccc(I)c1)*; 4Abz = Nc1ccc(C(=O)O)cc1

Experiment: Biodistribution in U-87 MG tumor-bearing mice
Format: in vivo, BALB/c nu-nu mice
Settings: male, BALB/c nu-nu, mouse, iv, 37 kBq, total radioactivity; for tissue uptake at 5 min: 5 min after i.v. administration; for tissue uptake at 5 min / tissue uptake at 0.5 h / tissue uptake at 1 h / tissue uptake at 2 h / tissue uptake at 6 h / tissue uptake at 12 h / tissue uptake at 24 h: U-87 MG-bearing mice, mean ± SD, n = 3; for tissue uptake at 0.5 h: 30 min after i.v. administration; for tissue uptake at 1 h: 1 h after i.v. administration; for tissue uptake at 2 h: 2 h after i.v. administration; for tissue uptake at 6 h: 6 h after i.v. administration; for tissue uptake at 12 h: 12 h after i.v. administration; for tissue uptake at 24 h: 24 h after i.v. administration
Procedure: Animal experiments were performed in compliance with institutional animal care regulations, with the study protocol approved by the Experimental Animal Committee of Osaka Medical and Pharmaceutical University (Approval Numbers: 21–76, 22–76, and 23–76). Four-week-old male BALB/c nu-nu mice (Japan SLC, Shizuoka, Japan) were housed under a 12 h light/12 h dark cycle with free access to food and water. Tumor-bearing mice were established by suspending U-87 MG cells (2 × 10^6 cells/mouse) in PBS(–) and subcutaneously injecting 100 μL of the suspension into the right hind leg. For co-implantation models, A549 cells (2 × 10^6 cells/mouse) were suspended in PBS(–) and inoculated (100 μL) into the left hind leg of the same mice already inoculated with U-87 MG cells. Mice with tumor size approximately 10 mm in diameter, 4–5 weeks after inoculation, were used for biodistribution studies. Animals in which either tumor was not viable were excluded from the experiment.
U-87 MG-bearing mice (n = 42, 8–9 weeks old; 22–27 g) were randomly assigned into groups and administered [^125I]bcRGDpal or [^125I]bcRGDiba via intravenous injection (37 kBq in 100 μL of PBS containing 0.1% Tween 80 (PBS-T80)). At 5 min, 30 min, 1 h, 2 h, 6 h, 12 h, or 24 h post-injection, the mice were euthanized (n = 3 per time point). The heart, kidneys, liver, brain, pancreas, spleen, lung, small intestine, large intestine, muscle, skin, stomach, bone, and tumors were excised. Each organ’s weight and radioactivity were measured by a NaI well-type scintillation counter, and the % ID/g was calculated. To investigate the correlation between integrin expression and radioactivity accumulation, biodistribution at 2 h after administration of [^125I]bcRGDpal or [^125I]bcRGDiba was assessed in A549 and U-87 MG co-implantation mice (n = 5) using the same procedure. Additionally, co-implantation mice were injected with [^125I]bcRGDdimer (37 kBq/100 μL PBS-T80) and euthanized at 30 min, 2 h, and 4 h post-injection (n = 4 per time point), and % ID/g values were calculated as described above. The minimum sample size needed for the biodistribution study in U-87 MG-bearing mice was calculated using G Power software version 3.1.9.7. The calculation was based on a two-tailed test, with an effect size of 3.9, a significance level (α) of 0.05, and a statistical power (1 − β) of 0.8. […] The minimum required sample size for the biodistribution study in A549 and U-87 MG co-implantation mice was also calculated to be four animals per group (effect size = 2.5, α = 0.05, 1 − β = 0.8). To guarantee objective results, the experiment was carried out in a blinded manner. Specifically, drug administration and radioactivity measurements were conducted by different investigators to eliminate potential bias.

[1] = U-87 MG tumor, read-out: Radioactivity in U-87 MG tumor
[2] = blood, read-out: Radioactivity in blood
[3] = bone, read-out: Radioactivity in bone
[4] = brain, read-out: Radioactivity in brain
[5] = heart, read-out: Radioactivity in heart
[6] = kidneys, read-out: Radioactivity in kidneys
[7] = large intestine, read-out: Radioactivity in large intestine
[8] = liver, read-out: Radioactivity in liver

## N=C(N)NCCC[C@@H]1NC(=O)[C@H]2CSCc3cc(cc(c3)CSC[C@H](C(N)=O)NC(=O)[C@H](CC(=O)O)NC(=O)CNC1=O)CSC[C@H](NC(=O)CNC(=O)[C@H](CO)NC(=O)c1ccc(NC(=O)CNC(=O)[C@H](CO)NC(=O)[C@@H]3CCCN3C(=O)[C@@H]3CCCN3C(=O)[C@@H]3CCCN3C(=O)[C@H](CCCCNC(=O)c3cccc(I)c3)NC(=O)CCCc3ccc(I)cc3)cc1)C(=O)N[C@@H](Cc1c[nH]cn1)C(=O)N1CCC[C@H]1C(=O)N[C@@H](CCC(N)=O)C(=O)N2 [[^125I]bcRGDiba] ({Butanoyl(4-(4-I-phenyl))}-K(Benzoyl(3-I))PPPSG[4Abz]SGCHPQ[dC]RGD[dC]-NH2; linker 10-14-18 via TBMB)
[1]
  tissue uptake at 5 min: 2.2 ± 0.5 %ID/g
  tissue uptake at 0.5 h: 3.4 ± 0.5 %ID/g
  tissue uptake at 1 h: 3.6 ± 0.8 %ID/g
  tissue uptake at 2 h: 3.6 ± 0.7 %ID/g
  tissue uptake at 6 h: 2.9 ± 0.4 %ID/g
  tissue uptake at 12 h: 1.4 ± 0.3 %ID/g
  tissue uptake at 24 h: 0.5 ± 0.1 %ID/g
U-87 MG tumor/blood, all time points (5 min to 24 h)
  tissue to tissue ratio: < 1
[2]
  tissue uptake at 5 min: 23.3 ± 2.9 %ID/g
  tissue uptake at 0.5 h: 18.5 ± 1 %ID/g
  tissue uptake at 1 h: 15.4 ± 1.2 %ID/g
  tissue uptake at 2 h: 14 ± 1.5 %ID/g
  tissue uptake at 6 h: 8.5 ± 1 %ID/g
  tissue uptake at 12 h: 3.9 ± 0.7 %ID/g
  tissue uptake at 24 h: 1.4 ± 0.1 %ID/g
[3]
  tissue uptake at 5 min: 1.7 ± 0.3 %ID/g
  tissue uptake at 0.5 h: 1.9 ± 0.6 %ID/g
  tissue uptake at 1 h: 1.6 ± 0.4 %ID/g
  tissue uptake at 2 h: 1.5 ± 0.3 %ID/g
  tissue uptake at 6 h: 1.3 ± 0.1 %ID/g
  tissue uptake at 12 h: 0.6 ± 0.2 %ID/g
  tissue uptake at 24 h: 0.3 ± 0.1 %ID/g
[4]
  tissue uptake at 5 min: 0.6 ± 0.2 %ID/g
  tissue uptake at 0.5 h: 0.4 ± 0.1 %ID/g
  tissue uptake at 1 h: 0.4 %ID/g
  tissue uptake at 2 h: 0.3 %ID/g
  tissue uptake at 6 h: 0.2 %ID/g
  tissue uptake at 12 h: 0.1 %ID/g
[5]
  tissue uptake at 5 min: 7.4 ± 1.4 %ID/g
  tissue uptake at 0.5 h: 5.3 ± 0.5 %ID/g
  tissue uptake at 1 h: 4.5 ± 0.8 %ID/g
  tissue uptake at 2 h: 4.2 ± 0.1 %ID/g
  tissue uptake at 6 h: 2.7 ± 0.2 %ID/g
  tissue uptake at 12 h: 1.3 ± 0.1 %ID/g
  tissue uptake at 24 h: 0.5 %ID/g
[6]
  tissue uptake at 5 min: 7.8 ± 0.5 %ID/g
  tissue uptake at 0.5 h: 7.1 ± 1.4 %ID/g
  tissue uptake at 1 h: 7.3 ± 0.4 %ID/g
  tissue uptake at 2 h: 5.5 ± 0.3 %ID/g
  tissue uptake at 6 h: 3.9 ± 0.4 %ID/g
  tissue uptake at 12 h: 1.8 ± 0.1 %ID/g
  tissue uptake at 24 h: 0.8 ± 0.1 %ID/g
[7]
  tissue uptake at 5 min: 1.5 ± 0.7 %ID/g
  tissue uptake at 0.5 h: 1 ± 0.1 %ID/g
  tissue uptake at 1 h: 1 ± 0.1 %ID/g
  tissue uptake at 2 h: 7.1 ± 2 %ID/g
  tissue uptake at 6 h: 11.3 ± 2 %ID/g
  tissue uptake at 12 h: 3.4 ± 1 %ID/g
  tissue uptake at 24 h: 2.2 ± 0.2 %ID/g
[8]
  tissue uptake at 5 min: 7.6 ± 0.5 %ID/g
  tissue uptake at 0.5 h: 6.9 ± 0.2 %ID/g
